Here are results for three molecules from patent publication US12673945B2, “3-((8-((1H-pyrazol-4-yl)amino)imidazo[1,2-a]pyridin-3-yl)ethinyl)-n-phenylbenzamide derivative, method for preparing same, and pharmaceutical composition containing same as active ingredient for prevention or treatment of cancer” (DAEGU-GYEONGBUK MEDICAL INNOVATION FOUNDATION, priority 2020, dated 2026).

The subject of data set [1] is Luc_Ba/F3 T315I-Bcr-Abl cell line. Nature of the data set: in vivo pharmacological activity, blood cancer mouse model. Set-up: species or system nude mice. As to conditions: 25 mg/kg oral once a day for 10 days; vehicle group: day 21. As for the experimental part:
(§1) After the mice were adapted to an animal facility for 1 week, the Luc_Ba/F3 T315I-Bcr-Abl cell line emitting luciferase was transplanted into the caudal vein at the density of 5×10^6/animal. Group separation was performed 3 days after the cell line transplantation. On the day of the group separation, 10 mice were randomly assigned to each group of 5 groups so that the luminescence values were equal after luminescence measurement using IVIS spectrum-CT optical imaging equipment.
In addition, the body weight and survival rate of each experimental group were monitored.
Statistical analysis was performed using GraphPad Prism 8, and the statistical significance of the survival rate was confirmed using unpaired t test and log-rank (Mantel-Cox) test.

The nature of data set [2]: body weight in blood cancer mouse model. The class given is in vivo, nude mice. As to conditions: 25 mg/kg oral once a day for 10 days. As for the experimental part: as §1, with “A total of 50 male 5-week-old nude mice (14-17 g) were obtained from Orient Bio Inc. (322, Galmachi-ro, Jungwon-gu, Seongnam-si, Gyeonggi-do, Korea). After” for “After”
5 groups: control (vehicle, 0.5% methylcellulose solution), ponatinib (25 mg/kg), Example 1 (25 mg/kg), Example 1 (50 mg/kg), Example 1 (100 mg/kg).
After the group separation, the compound of Example 1, ponatinib, and a vehicle were orally administered at intervals of once a day for 10 days in order to evaluate the therapeutic efficacy of the drug. The drug effect was confirmed through optical imaging, and the confirmation was carried out before the drug administration (day 0) and on days 4, 11, 18 and 21 after the administration. In addition, the body weight and survival rate of each experimental group were monitored.

Data set [3] is described as follows: oral pharmacokinetic test. As to conditions: ICR, mouse, plasma, 10 mg/kg, 10 mg/Kg PO, vehicle A (NMP:PEG400=5:95). It counts as in vivo, ICR mice. As for the experimental part:
(§2) To evaluate the pharmacokinetic properties in vivo, oral pharmacokinetic test was performed with the compounds of Comparative Examples 1 and 4 and Examples 1 and 4 using mice and rats, and the PK parameters are shown in Table 10.
(§3) ICR mice (6-7 weeks old) and SD rats (6-7 weeks old) were used for the test. The fasted group was fasted about 16 hours before oral administration, and the fed group was fasted about 4 hours before oral administration. The test drug for oral administration was used by dissolving the drug in a vehicle at a concentration of 1 mg/mL for use, and blood samples were collected (time point: 0.25, 0.5, 1, 2, 4, 8, 12, 24, 32, n=3) from the heart (mouse, 500 μL/time point) or jugular vein (rat, 120 μL/time point). Blood was centrifuged at 12,000 G at 4° C. for 2 minutes to separate plasma, and stored at −80° C. until analysis. • Vehicle A (NMP:PEG400=5:95) • Vehicle B (0.5% methyl cellulose) 6-2. Sampling and Pretreatment
(§4) To 20 μl of plasma, 180 μl of acetonitrile (including internal standard) was added. The mixture was vortexed and centrifuged for 5 minutes at 15,000 rpm at 4° C. The supernatant obtained after centrifugation was analyzed by LC-MS/MS.
(§5) PK parameters were calculated with a non-compartmental analysis model using Phoenix WinNonlin 6.4 version (Pharsight, USA) program.

Data set [4] in a line: oral pharmacokinetic test. Particulars: SD, plasma; rat, 10 mg/Kg PO, vehicle A (NMP:PEG400=5:95). The class given is in vivo, SD rats. As for the experimental part: as §2, §3, §4, §5

Consider `Cc1ccc(C(=O)Nc2ccc(CN3CCN(C)CC3)c(C(F)(F)F)c2)cc1C#Cc1cnc2cccnn12` [ponatinib, reference compound], for which the “day after the administration on which all subjects died (FIG. 3)” value in data set [1] was found to be 35 days. The “body weight change during the experimental period (FIG. 4)” value in data set [2] is “no significant body weight change”.

Regarding `Cc1cn(-c2cc(NC(=O)c3ccc(C)c(C#Cc4cnc5c(Nc6cnn(C)c6)cccn45)c3)cc(C(F)(F)F)c2)cn1` [Comparative Example 1, 4-methyl-N-(3-(4-methyl-1H-imidazol-1-yl)-5-(trifluoromethyl)phenyl)-3-((8-((1-methyl-1H-pyrazol-4-yl)amino)imidazo[1,2-a]pyridin-3-yl)ethynyl)benzamide, reference compound], in data set [3], the AUC(0-t) came to 7730 ng·h/mL, the highest level (Cmax) was 810 ng/mL and the half-life is 3.5 h.

On to `Cc1cn(-c2cc(NC(=O)c3ccc(C)c(C#Cc4cnc5c(Nc6cnn(C)c6)cccn45)c3)cc(C(C)(C)C#N)c2)cn1` [Comparative Example 4, N-(3-(2-cyanopropan-2-yl)-5-(4-methyl-1H-imidazol-1-yl)phenyl)-4-methyl-3-((8-((1-methyl-1H-pyrazol-4-yl)amino)imidazo[1,2-a]pyridin-3-yl)ethynyl)benzamide, reference compound], for which, in data set [4], the AUC(0-t) was determined as 2960 ng·h/mL and the concentration peaked (Cmax) at 169 ng/mL. In data set [3], this molecule showed an AUC(0-t) of 12600 ng·h/mL, a Cmax of 3840 ng/mL and a half-life of 3.3 h.
